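Protocol summary: plate cells (96-well), add compound at 5 concentrations, incubate 48 h, interpolate endpoints linearly. GI50 = concentration required for 50% inhibition of growth.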 Active and inactive are the calls of the source. No stated cut-off is given here; in the data, active = GI50 up to about 1.1 µM and inactive = higher.
What was measured:
Experiment in all cases: NCI tumour cell line growth inhibition, 48 h
[1] = system: SW-620
[2] = system: HOP-62
[3] = system: COLO 205
[4] = system: HT-29
[5] = system: NCI-H522
[6] = system: OVCAR-3
[7] = system: SK-MEL-28
[8] = system: NCI-H226
[9] = system: HL-60
[10] = system: M14
[11] = system: 786-0
[12] = system: A549
[13] = system: RXF 393
[14] = system: DU-145
[15] = system: OVCAR-5
[16] = system: UACC-257
[17] = system: TK-10
[18] = system: KM12
[19] = system: MOLT-4
[20] = system: OVCAR-4

Structure (SMILES)	GI50 [1]	GI50 [2]	GI50 [3]	GI50 [4]	GI50 [5]	GI50 [6]	GI50 [7]	GI50 [8]	GI50 [9]	GI50 [10]	GI50 [11]	GI50 [12]	GI50 [13]	GI50 [14]	GI50 [15]	GI50 [16]	GI50 [17]	GI50 [18]	GI50 [19]	GI50 [20]
O=C(CCCN1CCC2(CC1)CC(=O)N(N1CCOCC1)C2=O)c1ccccc1	> 100 µM (inactive)	> 100 µM (inactive)	> 100 µM (inactive)	> 100 µM (inactive)	> 100 µM (inactive)	> 100 µM (inactive)	> 100 µM (inactive)	> 100 µM (inactive)	> 100 µM (inactive)	> 100 µM (inactive)	> 100 µM (inactive)	> 100 µM (inactive)	> 100 µM (inactive)	> 100 µM (inactive)	> 100 µM (inactive)	> 100 µM (inactive)	> 100 µM (inactive)	> 100 µM (inactive)	> 100 µM (inactive)	–
N#Cc1c(N)c2c(c(-c3ccccc3)c1-c1ccccc1)C(=O)N(NC(=O)c1ccccc1)C2=O	> 100 µM (inactive)	–	> 100 µM (inactive)	–	81.7 µM (inactive)	31 µM (inactive)	> 100 µM (inactive)	> 100 µM (inactive)	58.2 µM (inactive)	> 100 µM (inactive)	76.9 µM (inactive)	> 100 µM (inactive)	60 µM (inactive)	> 100 µM (inactive)	> 100 µM (inactive)	> 100 µM (inactive)	> 100 µM (inactive)	> 100 µM (inactive)	40.6 µM (inactive)	> 100 µM (inactive)
CCCCCC(=O)NC(=S)Nc1nnn[nH]1	> 100 µM (inactive)	> 100 µM (inactive)	> 100 µM (inactive)	–	> 100 µM (inactive)	> 100 µM (inactive)	> 100 µM (inactive)	–	> 100 µM (inactive)	> 100 µM (inactive)	> 100 µM (inactive)	> 100 µM (inactive)	> 100 µM (inactive)	> 100 µM (inactive)	> 100 µM (inactive)	> 100 µM (inactive)	> 100 µM (inactive)	> 100 µM (inactive)	> 100 µM (inactive)	> 100 µM (inactive)
O=C1c2c(Br)sc(Br)c2C(NC(=O)C(F)(F)F)C1O (stereo not drawn)	17.8 µM (inactive)	–	16.8 µM (inactive)	24.7 µM (inactive)	13.3 µM (inactive)	19.3 µM (inactive)	21.8 µM (inactive)	29.5 µM (inactive)	8.39 µM (inactive)	20.6 µM (inactive)	19.3 µM (inactive)	25.3 µM (inactive)	13.3 µM (inactive)	20.5 µM (inactive)	19.7 µM (inactive)	19.3 µM (inactive)	> 100 µM (inactive)	30.1 µM (inactive)	31.3 µM (inactive)	19.9 µM (inactive)
COC(=O)/C=C/c1ccc2c(c1)CC1(C2)Cc2cc3c(cc2C1=O)CCC3 (stereo not drawn)	> 100 µM (inactive)	–	> 100 µM (inactive)	–	31.1 µM (inactive)	4.63 µM (inactive)	> 100 µM (inactive)	49.3 µM (inactive)	7.98 µM (inactive)	47 µM (inactive)	27 µM (inactive)	40.3 µM (inactive)	24.5 µM (inactive)	> 100 µM (inactive)	–	> 100 µM (inactive)	57.3 µM (inactive)	56.8 µM (inactive)	> 100 µM (inactive)	43.2 µM (inactive)
NC(=O)c1nnc2cc(F)c(F)cc2c1N	> 100 µM (inactive)	18.5 µM (inactive)	> 100 µM (inactive)	> 100 µM (inactive)	18.8 µM (inactive)	> 100 µM (inactive)	–	11.9 µM (inactive)	> 100 µM (inactive)	67.5 µM (inactive)	32.4 µM (inactive)	90.2 µM (inactive)	–	74.3 µM (inactive)	57.3 µM (inactive)	> 100 µM (inactive)	35.2 µM (inactive)	> 100 µM (inactive)	> 100 µM (inactive)	> 100 µM (inactive)
OB(O)c1ccccc1C#Cc1ccccc1B(O)O	20.1 µM (inactive)	23.9 µM (inactive)	16.2 µM (inactive)	42.7 µM (inactive)	14.6 µM (inactive)	17.1 µM (inactive)	35.6 µM (inactive)	–	21.4 µM (inactive)	22.7 µM (inactive)	28.4 µM (inactive)	18.5 µM (inactive)	11.3 µM (inactive)	15.9 µM (inactive)	27.4 µM (inactive)	0.55 µM (active)	17.1 µM (inactive)	13.9 µM (inactive)	40.5 µM (inactive)	–
N#C/C=C\c1ccc(-c2cc(C(F)(F)F)cc(C(F)(F)F)c2)o1	49.7 µM (inactive)	21.1 µM (inactive)	> 100 µM (inactive)	94.4 µM (inactive)	48 µM (inactive)	> 100 µM (inactive)	45.3 µM (inactive)	55.8 µM (inactive)	17.7 µM (inactive)	56.4 µM (inactive)	27.2 µM (inactive)	91.6 µM (inactive)	44.6 µM (inactive)	> 100 µM (inactive)	> 100 µM (inactive)	> 100 µM (inactive)	–	49 µM (inactive)	57.4 µM (inactive)	91.8 µM (inactive)
c1ccc(CSC(SCc2ccccc2)c2ccc3c(c2)OCO3)cc1	> 10 µM (inactive)	> 10 µM (inactive)	> 10 µM (inactive)	> 10 µM (inactive)	> 10 µM (inactive)	> 10 µM (inactive)	> 10 µM (inactive)	> 10 µM (inactive)	> 10 µM (inactive)	> 10 µM (inactive)	> 10 µM (inactive)	> 10 µM (inactive)	> 10 µM (inactive)	> 10 µM (inactive)	–	> 10 µM (inactive)	> 10 µM (inactive)	> 10 µM (inactive)	> 10 µM (inactive)	> 10 µM (inactive)
Clc1ccc(-c2nc3cc(Cl)ccc3[nH]2)cc1	42.6 µM (inactive)	34.4 µM (inactive)	19.6 µM (inactive)	33.6 µM (inactive)	19.6 µM (inactive)	28.9 µM (inactive)	47.9 µM (inactive)	50 µM (inactive)	39.9 µM (inactive)	36.4 µM (inactive)	35.2 µM (inactive)	29.3 µM (inactive)	> 100 µM (inactive)	31.8 µM (inactive)	–	43.3 µM (inactive)	30.8 µM (inactive)	24 µM (inactive)	34.1 µM (inactive)	58.1 µM (inactive)
COc1ccc(-c2nnc3nc4ccccc4n3c2O)cc1	> 100 µM (inactive)	> 100 µM (inactive)	> 100 µM (inactive)	> 100 µM (inactive)	> 100 µM (inactive)	–	> 100 µM (inactive)	> 100 µM (inactive)	> 100 µM (inactive)	> 100 µM (inactive)	> 100 µM (inactive)	> 100 µM (inactive)	7.19 µM (inactive)	> 100 µM (inactive)	> 100 µM (inactive)	> 100 µM (inactive)	> 100 µM (inactive)	> 100 µM (inactive)	> 100 µM (inactive)	> 100 µM (inactive)

Reference: ChEMBL document CHEMBL1201862, “PubChem BioAssay data set” (2004)
